Format in all cases: functional
The test system of experiment [1] is Trypanosoma brucei rhodesiense. Description: Antiparasitic activity against Trypanosoma brucei rhodesiense STIB 900 trypomastigote bloodstream form assessed as growth inhibition at 0.8 ug/ml after 72 hrs by resazurin dye-based fluorometric analysis relative to control. Particulars: STIB 900, 72 h, read-out: GI. (The colour change of resazurin is a common sign of viable cells or microbes.)

The subject of experiment [2] is Trypanosoma brucei rhodesiense. Description: Antiparasitic activity against Trypanosoma brucei rhodesiense STIB 900 trypomastigote bloodstream form assessed as growth inhibition at 4.8 ug/ml after 72 hrs by resazurin dye-based fluorometric analysis relative to control. The note with it: STIB 900, 72 h, read-out: GI.
The subject of experiment [3] is Leishmania donovani. Kind of experiment: Antiparasitic activity against Leishmania donovani MHOM-ET-67/L82 axenic amastigotes assessed as growth inhibition at 4.8 ug/ml after 72 hrs by resazurin dye-based fluorometric analysis relative to control. The note with it: MHOM-ET-67/L82, 72 h, read-out: GI.
The test system of experiment [4] is Trypanosoma cruzi. Description: Antiparasitic activity against Trypanosoma cruzi Tulahuen C4 intracellular amastigotes infected in rat L6 cells assessed as growth inhibition at 4.8 ug/ml after 96 hrs by CPRG/Nonidet reagent based photometric analysis relative to control. Particulars: Tulahuen C4, L6, 96 h, read-out: GI.
Experiment [5] has as its system Plasmodium falciparum. Kind of experiment: Antiparasitic activity against intraerythrocytic form of chloroquine/pyrimethamine-resistant Plasmodium falciparum K1 infected in human RBC assessed as growth inhibition at 4.8 ug/ml preincubated for 48 hrs followed by [3H]-hypoxanthine addition measured after 24 hrs by liquid scintillation counting analysis relative to control. Particulars: read-out: GI.

In experiment [6] the test system is Plasmodium falciparum. Kind of experiment: Antiparasitic activity against intraerythrocytic form of chloroquine/pyrimethamine-resistant Plasmodium falciparum K1 infected in human RBC assessed as growth inhibition at 0.8 ug/ml preincubated for 48 hrs followed by [3H]-hypoxanthine addition measured after 24 hrs by liquid scintillation counting analysis relative to control. The note with it: read-out: GI.

Experiment [7] has as its system Trypanosoma cruzi. Kind of experiment: Antiparasitic activity against Trypanosoma cruzi Tulahuen C4 intracellular amastigotes infected in rat L6 cells assessed as growth inhibition at 0.8 ug/ml after 96 hrs by CPRG/Nonidet reagent based photometric analysis relative to control. The note with it: Tulahuen C4, L6, 96 h, read-out: GI.
In experiment [8] the test system is Leishmania donovani. Description: Antiparasitic activity against Leishmania donovani MHOM-ET-67/L82 axenic amastigotes assessed as growth inhibition at 0.8 ug/ml after 72 hrs by resazurin dye-based fluorometric analysis relative to control. The note with it: MHOM-ET-67/L82, 72 h, read-out: GI.

The values that follow come from ChEMBL document CHEMBL4043153, “Lead selection of antiparasitic compounds from a focused library of benzenesulfonyl derivatives of heterocycles” (Bioorg Med Chem Lett, 2017).

As to `O=[N+]([O-])c1ccccc1S(=O)(=O)N1CCc2ccccc2C1`, the inhibition of growth at 0.8 µg/mL in experiment [1] stood at 10.8%; in the experiment on Plasmodium falciparum [6], 0%; in the experiment with Trypanosoma cruzi [7], 3.1%; in the experiment with Leishmania donovani [8], 17.8%. Further, the inhibition of growth at 4.8 µg/mL in experiment [2] is 6.9%; in the experiment with Leishmania donovani [3], 57%; in the experiment with Trypanosoma cruzi [4], 27.5%; in the experiment with Plasmodium falciparum [5] it was 19.8%.

Regarding `O=S(=O)(c1ccc(C(F)(F)F)cc1)N1CCc2ccccc21`, the inhibition of growth at 0.8 µg/mL stood at 2.2% in experiment [1], 0% in the experiment with Plasmodium falciparum [6], 3.4% with Trypanosoma cruzi [7] and 12.6% in the experiment with Leishmania donovani [8]. Besides, the inhibition of growth at 4.8 µg/mL in experiment [2] was found to be 0%; with Leishmania donovani [3], 68.8%; in the experiment with Trypanosoma cruzi [4] it was 10.8%; in the experiment on Plasmodium falciparum [5] it was 59.8%.

For the compound `CC1Cc2ccccc2N1S(=O)(=O)c1ccc(F)cc1` (centres undefined), the inhibition of growth at 0.8 µg/mL in experiment [1] amounted to 2.3%; with Plasmodium falciparum [6], 12.6%; with Trypanosoma cruzi [7] it was 0%; with Leishmania donovani [8], 4%. In addition, the inhibition of growth at 4.8 µg/mL came out at 0% in experiment [2], 47% with Leishmania donovani [3], 4.8% in the experiment with Trypanosoma cruzi [4] and 65% in the experiment on Plasmodium falciparum [5].

On to `CC1Cc2ccccc2N1S(=O)(=O)c1cccc(C(F)(F)F)c1` (centres undefined), for which the inhibition of growth at 0.8 µg/mL came to 0% in experiment [1], 15.1% in the experiment with Plasmodium falciparum [6], 0% in the experiment on Trypanosoma cruzi [7] and 13.5% with Leishmania donovani [8]. Moreover, the inhibition of growth at 4.8 µg/mL in experiment [2] was 0%; in the experiment with Leishmania donovani [3], 77.6%; with Trypanosoma cruzi [4] it was 5.7%; in the experiment with Plasmodium falciparum [5], 77.1%.

For `O=S(=O)(c1ccc(Br)cc1)n1ccc2ccccc21`, the inhibition of growth at 0.8 µg/mL in experiment [1] came out at 0%; in the experiment with Plasmodium falciparum [6], 0%; in the experiment on Trypanosoma cruzi [7], 0%; in the experiment with Leishmania donovani [8], 11.5%. Also, the inhibition of growth at 4.8 µg/mL in experiment [2] turned out to be 0%; with Leishmania donovani [3], 48.1%; in the experiment with Trypanosoma cruzi [4], 0%; with Plasmodium falciparum [5] it was 45.9%.

`O=S(=O)(c1ccc(F)cc1)N1CCc2ccccc21`: the inhibition of growth at 0.8 µg/mL in experiment [1] is 12.6%; in the experiment on Plasmodium falciparum [6], 1.5%; in the experiment on Trypanosoma cruzi [7], 0%; in the experiment with Leishmania donovani [8] it was 11%. For the same compound, the inhibition of growth at 4.8 µg/mL in experiment [2] was 19.2%; in the experiment with Leishmania donovani [3], 62.7%; in the experiment with Trypanosoma cruzi [4], 0.2%; in the experiment on Plasmodium falciparum [5], 28.2%.

Consider `CC(C)(C)c1ccc(S(=O)(=O)n2nnc3ccccc32)cc1`, for which the inhibition of growth at 0.8 µg/mL in experiment [1] was 8.8%; in the experiment on Plasmodium falciparum [6], 0%; in the experiment with Trypanosoma cruzi [7], 8.5%; in the experiment with Leishmania donovani [8] it was 13.3%. The inhibition of growth at 4.8 µg/mL is 0% in experiment [2], 42.8% with Leishmania donovani [3], 7.4% in the experiment on Trypanosoma cruzi [4] and 0% with Plasmodium falciparum [5].

Consider `Cc1ccc(S(=O)(=O)N2CCc3ccccc32)cc1`, for which the inhibition of growth at 0.8 µg/mL in experiment [1] is 3.1%; in the experiment with Plasmodium falciparum [6], 0%; with Trypanosoma cruzi [7], 0%; in the experiment on Leishmania donovani [8], 8.1%. Also, the inhibition of growth at 4.8 µg/mL in experiment [2] amounted to 0%; in the experiment with Leishmania donovani [3] it was 63.7%; in the experiment on Trypanosoma cruzi [4] it was 14.4%; in the experiment with Plasmodium falciparum [5] it was 20%.

As to `CC(=O)Nc1ccc(S(=O)(=O)N2c3ccccc3CC2C)cc1` (centres undefined), the inhibition of growth at 0.8 µg/mL in experiment [1] was 0%; in the experiment on Plasmodium falciparum [6] it was 4.2%; with Trypanosoma cruzi [7], 0%; with Leishmania donovani [8] it was 6.4%. Further, the inhibition of growth at 4.8 µg/mL in experiment [2] is 1.7%; with Leishmania donovani [3], 14.7%; in the experiment on Trypanosoma cruzi [4], 46.7%; in the experiment on Plasmodium falciparum [5], 15.6%.

In the case of `O=[N+]([O-])c1cccc(S(=O)(=O)n2ccc3ccccc32)c1`, the inhibition of growth at 0.8 µg/mL in experiment [1] was 1.9%; with Plasmodium falciparum [6], 8%; in the experiment on Trypanosoma cruzi [7], 0%; with Leishmania donovani [8], 11.7%. The inhibition of growth at 4.8 µg/mL is 3.9% in experiment [2], 59.3% in the experiment with Leishmania donovani [3], 40.5% in the experiment with Trypanosoma cruzi [4] and 68.8% with Plasmodium falciparum [5].

On to `O=[N+]([O-])c1ccccc1S(=O)(=O)n1nnc2ccccc21`, for which the inhibition of growth at 0.8 µg/mL in experiment [1] was 0%; in the experiment on Plasmodium falciparum [6], 0%; in the experiment on Trypanosoma cruzi [7], 7.3%; with Leishmania donovani [8], 32.7%. Also, the inhibition of growth at 4.8 µg/mL in experiment [2] stood at 1.3%; in the experiment on Leishmania donovani [3], 89.4%; in the experiment with Trypanosoma cruzi [4], 7.1%; in the experiment with Plasmodium falciparum [5], 0%.

As to `O=[N+]([O-])c1ccccc1S(=O)(=O)N1CCCc2ccccc21`, the inhibition of growth at 0.8 µg/mL in experiment [1] stood at 6.2%; with Plasmodium falciparum [6] it was 3.5%; with Trypanosoma cruzi [7], 0%; with Leishmania donovani [8], 10.1%. In addition, the inhibition of growth at 4.8 µg/mL in experiment [2] stood at 17.1%; in the experiment with Leishmania donovani [3], 50.1%; in the experiment on Trypanosoma cruzi [4], 26.9%; in the experiment on Plasmodium falciparum [5] it was 38%.

On to `O=S(=O)(c1ccc(Br)cc1)N1CCc2ccccc21`, for which the inhibition of growth at 0.8 µg/mL is 5.3% in experiment [1], 9.8% with Plasmodium falciparum [6], 4.2% in the experiment on Trypanosoma cruzi [7] and 17.9% in the experiment with Leishmania donovani [8]. Also, the inhibition of growth at 4.8 µg/mL in experiment [2] is 0%; with Leishmania donovani [3], 77.7%; with Trypanosoma cruzi [4], 28.1%; in the experiment with Plasmodium falciparum [5], 63.5%.

With `CC(C)(C)c1ccc(S(=O)(=O)N2CCc3ccccc32)cc1`, the inhibition of growth at 0.8 µg/mL worked out at 1.9% in experiment [1], 29.5% in the experiment on Plasmodium falciparum [6], 5.2% with Trypanosoma cruzi [7] and 49.4% in the experiment on Leishmania donovani [8]. Moreover, the inhibition of growth at 4.8 µg/mL was 5.8% in experiment [2], 100% in the experiment with Leishmania donovani [3], 54.1% in the experiment with Trypanosoma cruzi [4] and 99.1% with Plasmodium falciparum [5].

Regarding `O=[N+]([O-])c1ccccc1S(=O)(=O)n1ccc2ccccc21`, in the experiment on Trypanosoma cruzi [7], the inhibition of growth at 0.8 µg/mL is less than 40%.

Turning to `C[C@@H]1CC[C@H]2[C@@H](C)C(=O)O[C@@H]3O[C@@]4(C)CC[C@@H]1[C@]32OO4` [ARTEMISININ], the inhibition of growth at 4.8 µg/mL in the experiment on Plasmodium falciparum [5] turned out to be 100%. In the experiment on Plasmodium falciparum [6], the inhibition of growth at 0.8 µg/mL came out at 80%.

Consider `O=C(Cn1ccnc1[N+](=O)[O-])NCc1ccccc1` [BENZNIDAZOLE], for which, in the experiment with Trypanosoma cruzi [4], the inhibition of growth at 4.8 µg/mL was 98.5%. In addition, the inhibition of growth at 0.8 µg/mL with Trypanosoma cruzi [7] amounted to 63.3%.

In the case of `Nc1nc(N)nc(Nc2ccc([As]3SCC(CO)S3)cc2)n1` (centres undefined) [MELARSOPROL], the inhibition of growth at 0.8 µg/mL in experiment [1] came to 44.4%. The inhibition of growth at 4.8 µg/mL in experiment [2] was 98.3%.
